molecular target: T1, recombinant human GR (Homo sapiens, UniProt P04150); assay: Human Glucocorticoid Receptor (GR) Assay (fluorescence polarization, Panvera/Invitrogen kit); format: binding; conditions: not given
T1 construct: purchased Panvera/Invitrogen P2812 (kit P2893)
T1 sequence (P04150 1-777): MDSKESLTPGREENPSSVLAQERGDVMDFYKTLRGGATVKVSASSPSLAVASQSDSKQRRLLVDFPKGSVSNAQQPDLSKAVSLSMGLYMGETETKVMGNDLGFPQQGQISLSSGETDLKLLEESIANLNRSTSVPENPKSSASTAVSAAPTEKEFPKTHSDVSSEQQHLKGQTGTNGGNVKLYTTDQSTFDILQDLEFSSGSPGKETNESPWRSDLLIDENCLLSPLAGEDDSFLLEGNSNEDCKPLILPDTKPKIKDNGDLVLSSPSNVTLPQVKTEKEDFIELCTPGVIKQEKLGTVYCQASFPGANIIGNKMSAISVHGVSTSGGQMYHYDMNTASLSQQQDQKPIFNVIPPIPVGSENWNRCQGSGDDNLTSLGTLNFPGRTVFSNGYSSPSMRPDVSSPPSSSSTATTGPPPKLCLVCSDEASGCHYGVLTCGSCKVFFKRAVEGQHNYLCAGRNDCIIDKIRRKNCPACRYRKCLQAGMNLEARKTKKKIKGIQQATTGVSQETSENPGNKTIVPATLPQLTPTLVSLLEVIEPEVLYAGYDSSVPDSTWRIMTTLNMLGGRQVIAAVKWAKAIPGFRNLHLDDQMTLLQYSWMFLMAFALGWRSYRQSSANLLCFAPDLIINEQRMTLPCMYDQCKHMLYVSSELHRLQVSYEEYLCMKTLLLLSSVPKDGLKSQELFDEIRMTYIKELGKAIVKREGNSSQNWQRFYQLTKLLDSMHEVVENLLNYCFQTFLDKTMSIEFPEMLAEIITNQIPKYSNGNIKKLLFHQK
In short: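 Fluorescence polarization competition with recombinant GR and GS Red fluorescent ligand plus stabilizing peptide and DTT in potassium phosphate/sodium molybdate/EDTA buffer with DMSO. Incubated 2 hours at room temperature in the dark; 0% control DMSO, 100% control 10 μM dexamethasone.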

Row | SMILES | IC50 [nM]
1 | Cc1occc1C(=O)O[C@]1(C(=O)SCCO)CC[C@H]2[C@@H]3CCC4=Cc5c(cnn5-c5ccc(F)cc5)C[C@]4(C)[C@H]3[C@@H](O)C[C@@]21C [Example 55, (1R,3aS,3bS,10aR,10bS,11S,12aS)-7-(4-Fluorophenyl)-11-hydroxy-1-{[(2-hydroxy-ethyl)thio]carbonyl}-10a,12a-dimethyl-1,2,3,3a,3b,4,5,7,10,10a,10b,11,12,12a-tetradecahydrocyclopenta[5,6]naphtho[1,2-f]indazol-1-yl 2-methylfuran-3-carboxylate] | 7

same assay, conditions: fluorescence polarization; GS Red tracer; 2 hours at room temperature; 100% control 10 μM Dexamethasone; read-out: Inhibition of GR binding, IC50

Row | SMILES | IC50 [nM]
2 | CC(=O)CSC(=O)[C@@]1(OC(=O)c2cocn2)CC[C@H]2[C@@H]3CCC4=Cc5c(cnn5-c5ccc(F)cc5)C[C@]4(C)[C@H]3[C@@H](O)C[C@@]21C [Example 46, (1R,3aS,3bS,10aR,10bS,11S,12aS)-7-(4-Fluorophenyl)-11-hydroxy-10a,12a-dimethyl-1-{[(2-oxopropyl)thio]carbonyl}-1,2,3,3a,3b,4,5,7,10,10a,10b,11,12,12a-tetradecahydropcyclopenta[5,6]naphtho[1,2-f]indazol-1-yl 1,3-oxazole-4-carboxylate] | 3.9
3 | Cn1cc(C(=O)O[C@]2(C(=O)SCC#N)CC[C@H]3[C@@H]4CCC5=Cc6c(cnn6-c6ccc(F)cc6)C[C@]5(C)[C@H]4[C@@H](O)C[C@@]32C)nn1 [Example 47, (1R,3aS,3bS,10aR,10bS,11S,12aS)-1-{[(Cyanomethyl)thio]carbonyl}-7-(4-fluoro-phenyl)-11-hydroxy-10a,12a-dimethyl-1,2,3,3a,3b,4,5,7,10,10a,10b,11,12,12a-tetradecahydrocyclopenta[5,6]naphtho[1,2-f]indazol-1-yl 1-methyl-1H-1,2,3-triazole-4-carboxylate] | 2.5
4 | Cn1cc(C(=O)O[C@]2(C(=O)SCF)CC[C@H]3[C@@H]4CCC5=Cc6c(cnn6-c6ccc(F)cc6)C[C@]5(C)[C@H]4[C@@H](O)C[C@@]32C)nn1 [Example 48, (1R,3aS,3bS,10aR,10bS,11S,12aS)-1-{[(Fluoromethyl)thio]carbonyl}-7-(4-fluoro-phenyl)-11-hydroxy-10a,12a-dimethyl-1,2,3,3a,3b,4,5,7,10,10a,10b,11,12,12a-tetradecahydrocyclopenta[5,6]naphtho[1,2-f]indazol-1-yl 1-methyl-1H-1,2,3-triazole-4-carboxylate] | 4.9
5 | Cn1cc(C(=O)O[C@]2(C(=O)SCCO)CC[C@H]3[C@@H]4CCC5=Cc6c(cnn6-c6ccc(F)cc6)C[C@]5(C)[C@H]4[C@@H](O)C[C@@]32C)nn1 [Example 49, (1R,3aS,3bS,10aR,10bS,11S,12aS)-7-(4-Fluorophenyl)-11-hydroxy-1-{[(2-hydroxy-ethyl)thio]carbonyl}-10a,12a-dimethyl-1,2,3,3a,3b,4,5,7,10,10a,10b,11,12,12a-tetradecahydrocyclopenta[5,6]naphtho[1,2-f]indazol-1-yl 1-methyl-1H-1,2,3-triazole-4-carboxylate] | 3.5
6 | C[C@]12Cc3cnn(-c4ccc(F)cc4)c3C=C1CC[C@@H]1[C@@H]2[C@@H](O)C[C@@]2(C)[C@H]1CC[C@]2(OC(=O)c1ccoc1)C(=O)SCC#N [Example 50, (1R,3aS,3bS,10aR,10bS,11S,12aS)-1-{[(Cyanomethyl)thio]carbonyl}-7-(4-fluoro-phenyl)-11-hydroxy-10a,12a-dimethyl-1,2,3,3a,3b,4,5,7,10,10a,10b,11,12,12a-tetradecahydrocyclopenta[5,6]naphtho[1,2-f]indazol-1-yl furan-3-carboxylate] | 5.8
7 | C[C@]12Cc3cnn(-c4ccc(F)cc4)c3C=C1CC[C@@H]1[C@@H]2[C@@H](O)C[C@@]2(C)[C@H]1CC[C@]2(OC(=O)c1ccoc1)C(=O)SCF [Example 51, (1R,3aS,3bS,10aR,10bS,11S,12aS)-1-{[(Fluoromethyl)thio]carbonyl}-7-(4-fluoro-phenyl)-11-hydroxy-10a,12a-dimethyl-1,2,3,3a,3b,4,5,7,10,10a,10b,11,12,12a-tetradecahydrocyclopenta[5,6]naphtho[1,2-f]indazol-1-yl furan-3-carboxylate] | 6.9
8 | C[C@]12Cc3cnn(-c4ccc(F)cc4)c3C=C1CC[C@@H]1[C@@H]2[C@@H](O)C[C@@]2(C)[C@H]1CC[C@]2(OC(=O)c1ccoc1)C(=O)SCCO [Example 52, (1R,3aS,3bS,10aR,10bS,11S,12aS)-7-(4-Fluorophenyl)-11-hydroxy-1-{[(2-hydroxy-ethyl)thio]carbonyl}-10a,12a-dimethyl-1,2,3,3a,3b,4,5,7,10,10a,10b,11,12,12a-tetradecahydrocyclopenta[5,6]naphtho[1,2-f]indazol-1-yl furan-3-carboxylate] | 6.4
9 | Cc1occc1C(=O)O[C@]1(C(=O)SCC#N)CC[C@H]2[C@@H]3CCC4=Cc5c(cnn5-c5ccc(F)cc5)C[C@]4(C)[C@H]3[C@@H](O)C[C@@]21C [Example 53, (1R,3aS,3bS,10aR,10bS,11S,12aS)-1-{[(Cyanomethyl)sulfanyl]carbonyl}-7-(4-fluoro-phenyl)-11-hydroxy-10a,12a-dimethyl-1,2,3,3a,3b,4,5,7,10,10a,10b,11,12,12a-tetradecahydrocyclopenta[5,6]naphtho[1,2-f]indazol-1-yl 2-methylfuran-3-carboxylate] | 9
10 | Cc1occc1C(=O)O[C@]1(C(=O)SCF)CC[C@H]2[C@@H]3CCC4=Cc5c(cnn5-c5ccc(F)cc5)C[C@]4(C)[C@H]3[C@@H](O)C[C@@]21C [Example 54, (1R,3aS,3bS,10aR,10bS,11S,12aS)-1-{[(Fluoromethyl)thio]carbonyl}-7-(4-fluorophenyl)-11-hydroxy-10a,12a-dimethyl-1,2,3,3a,3b,4,5,7,10,10a,10b,11,12,12a-tetradecahydropcyclopenta[5,6]naphtho[1,2]-indazol-1-yl 2-methylfuran-3-carboxylate] | 7.3
11 | Cc1ccoc1C(=O)O[C@]1(C(=O)SCC#N)CC[C@H]2[C@@H]3CCC4=Cc5c(cnn5-c5ccc(F)cc5)C[C@]4(C)[C@H]3[C@@H](O)C[C@@]21C [Example 56, (1R,3aS,3bS,10aR,10bS,11S,12aS)-1-{[(Cyanomethyl)thio]carbonyl}-7-(4-fluorophenyl)-11-hydroxy-10a,12a-dimethyl-1,2,3,3a,3b,4,5,7,10,10a,10b,11,12,12a-tetradecahydropcyclopenta[5,6]naphtho[1,2-f]indazol-1-yl 3-methylfuran-2-carboxylate] | 6.5
12 | Cc1ccoc1C(=O)O[C@]1(C(=O)SCF)CC[C@H]2[C@@H]3CCC4=Cc5c(cnn5-c5ccc(F)cc5)C[C@]4(C)[C@H]3[C@@H](O)C[C@@]21C [Example 57, (1R,3aS,3bS,10aR,10bS,11S,12aS)-1-{[(Fluoromethyl)thio]carbonyl}-7-(4-fluorophenyl)-11-hydroxy-10a,12a-dimethyl-1,2,3,3a,3b,4,5,7,10,10a,10b,11,12,12a-tetradecaphydrocyclopenta[5,6]naphtho[1,2-f]indazol-1-yl 3-methylfuran-2-carboxylate] | 3.8
13 | Cc1ccoc1C(=O)O[C@]1(C(=O)SCCO)CC[C@H]2[C@@H]3CCC4=Cc5c(cnn5-c5ccc(F)cc5)C[C@]4(C)[C@H]3[C@@H](O)C[C@@]21C [Example 58, (1R,3aS,3bS,10aR,10bS,11S,12aS)-7-(4-Fluorophenyl)-11-hydroxy-1-{[(2-hydroxy-ethyl)thio]carbonyl}-10a,12a-dimethyl-1,2,3,3a,3b,4,5,7,10,10a,10b,11,12,12a-tetradecahydrocyclopenta[5,6]naphtho[1,2-f]indazol-1-yl 3-methylfuran-2-carboxylate] | 5.5
14 | C[C@]12Cc3cnn(-c4ccc(F)cc4)c3C=C1CC[C@@H]1[C@@H]2[C@@H](O)C[C@@]2(C)[C@H]1CC[C@]2(OC(=O)c1ccno1)C(=O)SCC#N [Example 59, (1R,3aS,3bS,10aR,10bS,11S,12aS)-1-{[(Cyanomethyl)thio]carbonyl}-7-(4-fluorophenyl)-11-hydroxy-10a,12a-dimethyl-1,2,3,3a,3b,4,5,7,10,10a,10b,11,12,12a-tetradecahydropcyclopenta[5,6]naphtho[1,2-f]indazol-1-yl isoxazole-5-carboxylate] | 3.9
15 | C[C@]12Cc3cnn(-c4ccc(F)cc4)c3C=C1CC[C@@H]1[C@@H]2[C@@H](O)C[C@@]2(C)[C@H]1CC[C@]2(OC(=O)c1ccno1)C(=O)SCF [Example 60, (1R,3aS,3bS,10aR,10bS,11S,12aS)-1-{[(Fluoromethyl)thio]carbonyl}-7-(4-fluorophenyl)-11-hydroxy-10a,12a-dimethyl-1,2,3,3a,3b,4,5,7,10,10a,10b,11,12,12a-tetradecahydropcyclopenta[5,6]naphtho[1,2]-indazol-1-yl isoxazole-5-carboxylate] | 4.5
